Experimental data as given in patent publication US20210386829A1, “COMPOSITIONS AND METHODS FOR MODULATING CGRP SIGNALING TO REGULATE INNATE LYMPHOID CELL INFLAMMATORY RESPONSES” (The Broad Institute, Inc., priority 2018, published 2021).

Tests used:
[1] = system: inflammatory ILC2s (ST2-KLRG1+ ILCs; iILC2s); assay: culture of sort-purified inflammatory ILC2s (iILC2s) with IL-33 or IL-25 with or without CGRP, qPCR; format: cell-based, mouse; settings: IL-33 or IL-25 with vs without CGRP, 6 hours
Experimental: Isolation of lung cells for fluorescence-activated cell sorting. Mice were euthanized and perfused with 8 ml cold PBS via the right heart ventricle. Lung lobes were removed from the chest cavity and transferred into gentleMACS C tubes containing Buffer S and enzymes A and D from the lung dissociation kit (Cat #130-095-927; Miltenyi Biotec). After manual dissociation of the tissue by running program lung_01 of the automated tissue dissociator (gentleMACS; Miltenyi Biotec), and digestion at 37° C. for 25 min on a rotator, the tissue pieces were further dissociated by running program lung_02 of the automated tissue dissociator. Subsequently, the single-cell suspension was passed through a 70 um cell strainer and washed with DPBS (Cat #14190-144; Thermo Fisher Scientific) containing 0.5% bovine serum albumin (Cat #BP1600-1; Fisher Scientific) and 2 mM EDTA. After incubation of the cells with CD90.2 MicroBeads (Cat #130-049-101; Miltenyi Biotec) on ice for 17 min, cells were washed and transferred onto LS columns (Cat #130-042-401; Miltenyi Biotec) to enrich for CD90.2-positive cells by positive selection. […] Cells were purified by fluorescence-activated cell sorting using a BD FACS Aria IIIu flow cytometer with 3 lasers (405 nm, 488 nm, 640 nm) or 4 lasers (405 nm, 488 nm, 561 nm and 640 nm) (BD Biosciences). […]

ILC2s = settings: recent report (Sui et al., 2018); cited from earlier work

## CGRP: neuropeptide calcitonin gene-related peptide (encoded by Calca), ligand of the Ramp1/Calcrl receptor; given at 100 nM in vitro, 6.65 ug nasally
[1]
  Il5 and Il13 expression in iILC2s: no differences
ILC2s
  IL-5 and amphiregulin (Areg) production by ILC2s: enhanced
